Reference: patent US20190060428A1, “FORMULATIONS FOR NEOPLASIA VACCINES AND METHODS OF PREPARING THEREOF” (The Broad Institue Inc., priority 2015, published 2019)

Tests used:
[1] = pH of peptide solutions in DMSO/D5W, with succinate, and with Hiltonol; format: physicochemical
[2] = Solubility of peptides in DMSO/D5W/5 mM succinate formulation; conditions: pH 6

| pH of peptides in DMSO/D5W [1] | pH of peptides in DMSO/D5W/5mM S. Succinate spike [1] | pH of peptides in DMSO/D5W/5nnM Succinate and Hiltonol [1] | Substance | solubility [2] [µg/mL] |
| --- | --- | --- | --- | --- |
| 3.82 | 6.28 | 6.5 | H-AESAQRQGPLGGGEQSANEF-OH [CS7417] | – |
| 4.24 | 6.78 | 6.96 | H-LPVFIGNIAVNHAPVSLRPGLGLPPGAPPGTVP-OH [CS7438] | – |
| 3.99 | 6.46 | 6.88 | H-ALSLTPGLRIGPSGLFLVFLAESAVDKGHPNRS-OH [CS7410] | – |
| 4.24 | 6.61 | 6.96 | H-LRVFIGNIAVNHAPVSLRPGLGLPPGAPPGTVP-OH [CS7412] | – |
| 3.8 | 6.45 | 6.69 | H-KKNITNLSRLVVRPDTDAVY-OH [CS7431] | – |
| 3.98 | 6.76 | 6.96 | H-YLLPKTAVVLRCPALRVRKP-OH [CS7418] | – |
| 3.87 | 6.53 | 6.94 | H-DSAVDKGHPNRSALSLTPGLRIGPSGLFLVFLA-OH [CS7411] | – |
| 3.91 | 6.61 | 6.81 | H-GTKALQLHSIAGRWPRMEPWVVESMSLGVP-OH [CS7415] | – |

More lines, now with the values behind:

| Substance | pH of peptides in DMSO/D5W [1] | pH of peptides in DMSO/D5W/5mM S. Succinate spike [1] | pH of peptides in DMSO/D5W/5nnM Succinate and Hiltonol [1] | solubility [2] [µg/mL] |
| --- | --- | --- | --- | --- |
| H-SKLPYPVAKSGKRALARGPAPTEKTPHSGAQLG-OH [CS6719] | 3.94 | – | – | – |
| H-VTLNDMKARQKALVRERERQLA-OH | – | – | – | > 2000 |
| H-PIQVFYTKQPQNDYLHVALVSVFQIHQEAPSSQ-OH [CS6729] | 3.87 | – | – | – |
| H-LLTDRNTSGTTFTLLGVSDYPELQVPIPQAGLG-OH [CS7408] | 3.89 | 6.31 | 6.75 | – |
| H-LAALCPASRALEEKKGNYVVTDHGS-OH | – | – | – | > 2000 |
| H-ESKLFGDPDEFSLAHLLEPFRQYYL-OH | – | – | – | < 2000 |
| H-KPKKVAGAATPKKSIKRTPKKVKKPATAAGTKK-OH [CS6717] | 4.65 | – | – | – |
| H-SHKLESIKEITNFKDAKQLL-OH | – | – | – | > 2000 |
| H-LVDQWRWGVFSGHTPPSRYNFDWWY-OH | – | – | – | < 2000 |
| H-HPEFANPDSMEYISDVVDEVIQN-OH | – | – | – | > 2000 |
| H-PPYPYSSPSLVLPTEPHTPKSLQQPGLPS-OH [CS6715] | 4.11 | – | – | – |
| H-LAALCPASRALEEKKGNYVVTDH-OH | – | – | – | > 2000 |
| H-PIDTSKTDPTVLLFMESQYSQLGQD-OH | – | – | – | > 2000 |
| H-LCPASRALEEKKGNYVVTDHGS-OH | – | – | – | > 2000 |
| H-SLPKSFKRKIFVVSATKGVPAGNSD-OH | – | – | – | > 2000 |
| H-LLTDRNTSGTTFTLLGVSDYPELQVP-OH [CS7409] | 3.86 | 6.32 | 6.62 | – |
